The results in this text go back to patent publication US10703757B2, “Compounds and methods for CDK8 modulation and indications therefor” (Plexxikon Inc., priority 2016, dated 2020).

The IC50 is the concentration that inhibits the measured activity by half. A lower IC50 goes with greater potency in that assay.

Experiment [1] relates to CDK8 (phosphorylation of STAT1 at serine 727 in A549 cells). The experiment is described as follows: Cell based Phospho-STAT1 assay (IFNγ-stimulated A549 cells, AlphaLISA). Particulars: Homo sapiens, A549, A549 cells, phospho-STAT1 after IFNγ stimulation. Put shortly: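 A549 cells given serial compound dilutions for 1 h at 37 °C, then stimulated with IFNγ at 10 ng/mL final for 30 min. Lysate STAT1 Ser727 phosphorylation measured by AlphaLISA; % inhibition vs stimulated/unstimulated DMSO controls, IC50 by nonlinear regression.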
Background: Alpha assays give light when donor and acceptor beads are brought close together.

Experiment [2] deals with CDK8 (TCF/LEF luciferase reporter in HCT116 cells). The experiment is described as follows: Cell based TCF/LEF reporter assay (HCT116+TCF/LEF luciferase). To be noted: Homo sapiens, HCT-116, 24 h. Put shortly: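 Luciferase readout was corrected for viability (CellTiter-Fluor) and scaled between DMSO high and 10 uM CCT251545 low controls, giving IC50 by nonlinear regression. Compounds, serially diluted, were incubated 24 h at 37 °C on HCT116 clones stably expressing a TCF/LEF-driven luciferase reporter.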
A general note: Reporter assays use an easily measured gene product as a stand-in for the process of interest.

On to `COC(=O)c1ccc(-c2cnn3cccc(C4=CCC(C#N)CC4)c23)cc1C` (stereo not drawn) [Compound P-0123, methyl 4-(4-(4-cyanocyclohex-1-en-1-yl)pyrazolo[1,5-a]pyridin-3-yl)-2-methylbenzoate], for which the IC50 in experiment [1] and in experiment [2] was 0.0001 to 0.1 µM each time.

For the molecule `N#CC1CC=C(c2cccn3ncc(-c4ccc5cccnc5c4)c23)CC1` (stereo not drawn) [Compound P-0124, 4-(3-(quinolin-7-yl)pyrazolo[1,5-a]pyridin-4-yl)cyclohex-3-ene-1-carbonitrile], the IC50 in experiment [1] was in the range of 0.0001 to 0.1 µM; in experiment [2] it was 0.1 to 1 µM.

For the molecule `N#CC1CC=C(c2cccn3ncc(-c4ccc(N5CCOCC5)c(F)c4)c23)CC1` (stereo not drawn) [Compound P-0125, 4-(3-(3-fluoro-4-morpholinophenyl)pyrazolo[1,5-a]pyridin-4-yl)cyclohex-3-ene-1-carbonitrile], the IC50 in experiment [1] and in experiment [2] was 0.0001 to 0.1 µM each time.

Regarding `CS(=O)(=O)c1ccc(-c2cnn3cccc(C4=CCC(C#N)CC4)c23)cc1F` (stereo not drawn) [Compound P-0126, 4-(3-(3-fluoro-4-(methyl-sulfonyl)phenyl)pyrazolo[1,5-a]pyridin-4-yl)cyclohex-3-ene-1-carbonitrile], the IC50 was in the range of 0.0001 to 0.1 µM in experiment [1] and 0.1 to 1 µM in experiment [2].

Regarding `N#CC1CC=C(c2cccn3ncc(-c4ccc5ncccc5c4)c23)CC1` (stereo not drawn) [Compound P-0127, 4-(3-(quinolin-6-yl)pyrazolo[1,5-a]pyridin-4-yl)cyclohex-3-ene-1-carbonitrile], the IC50 in experiment [1] and in experiment [2] was 0.0001 to 0.1 µM each time.

On to `N#CC1CC=C(c2cccn3ncc(-c4ccc(OCC(O)CN5CCCCC5)cc4)c23)CC1` (stereo not drawn) [Compound P-0128, 4-(3-(4-(2-hydroxy-3-(piperidin-1-yl)propoxy)phenyl)pyrazolo[1,5-a]pyridin-4-yl)cyclohex-3-ene-1-carbonitrile], for which the IC50 in experiment [1] and in experiment [2] was 0.0001 to 0.1 µM throughout.

As for `NC(=O)C1CC=C(c2nccn3ncc(-c4ccc(OCCN5CCOCC5)cc4)c23)CC1` (stereo not drawn) [Compound P-0129, 4-(3-(4-(2-morpholino-ethoxy)phenyl)pyrazolo[1,5-a]pyrazin-4-yl)cyclohex-3-ene-1-carboxamide], the IC50 in experiment [1] and in experiment [2] was 0.0001 to 0.1 µM each time.

As for `N#CC1CC=C(c2nccn3ncc(-c4ccc(OCCCN5CCOCC5)cc4)c23)CC1` (stereo not drawn) [Compound P-0130, 4-[3-[4-(3-morpholinopropoxy)phenyl]pyrazolo[1,5-a]pyrazin-4-yl]cyclohex-3-ene-1-carbonitrile], the IC50 in experiment [1] and in experiment [2] was 0.0001 to 0.1 µM throughout.

For the molecule `Cc1ccc2cc(-c3cnc4[nH]ccc4c3C#CC(C)(C)C(N)=O)ccc2n1` [Compound P-0131, 2,2-dimethyl-4-(5-(2-methylquinolin-6-yl)-1H-pyrrolo[2,3-b]pyridin-4-yl)but-3-ynamide], the IC50 was 0.1 to 1 µM in experiment [1] and 1 to 10 µM in experiment [2].

Regarding `CC(C)(O)Cn1cc(-c2ccc(-c3cnc4[nH]ccc4c3C3=CCC(C#N)CC3)cc2F)cn1` (stereo not drawn) [Compound P-0132, 4-(5-(3-fluoro-4-(1-(2-hydroxy-2-methylpropyl)-1H-pyrazol-4-yl)phenyl)-1H-pyrrolo[2,3-b]pyridin-4-yl)cyclohex-3-ene-1-carbonitrile], the IC50 in experiment [1] and in experiment [2] was 0.0001 to 0.1 µM in each case.

With `CC(C)(O)Cn1cc(-c2ccc(-c3cnc4[nH]ccc4c3C#CC(C)(C)C(N)=O)cc2)cn1` [Compound P-0133, 4-[5-[4-[1-(2-hydroxy-2-methyl-propyl)pyrazol-4-yl]phenyl]-1H-pyrrolo[2,3-b]pyridin-4-yl]-2,2-dimethyl-but-3-ynamide], the IC50 in experiment [1] and in experiment [2] was 0.1 to 1 µM throughout.

In the case of `CC(C)(O)Cn1cc(-c2ccc(-c3cnc4[nH]ccc4c3C3=CCC(C(N)=O)CC3)cc2F)cn1` (stereo not drawn) [Compound P-0134, 4-(5-(3-fluoro-4-(1-(2-hydroxy-2-methylpropyl)-1H-pyrazol-4-yl)phenyl)-1H-pyrrolo[2,3-b]pyridin-4-yl)cyclohex-3-ene-1-carboxamide], the IC50 fell in the range of 0.1 to 1 µM in experiment [1] and 0.0001 to 0.1 µM in experiment [2].
